*1 amine or outer side, *2 acyl side, *3 side chain or, on linkers, in order; H or OH if unused. Where a SMILES comes first, the peptide text is derived from it. [ ]: non-standard residue; d: D form. The star is where a group is joined. X1 = O=C(Cc1ccc(N[*:1])cc1)[*:2]; NH(2-Me-phenyl) = Cc1ccccc1N*; CO = O=C([*:1])[*:2]
Key:
[1] = set-up: method as in PMID 17523052, PMID 11682211; settings: plasma; heparinized blood; homogenates of rat liver, lungs, and intestines; cited from earlier work
[2] = set-up: method as in PMID 12086484; settings: cited from earlier work
[3] = test system: antigen-induced airway hyper-responsiveness; set-up: method as in PMID 10934094; settings: allergic sheep; cited from earlier work
α4β1 integrin [4] = molecular target: T1, α4β1 integrin (Homo sapiens, UniProt P05556+P13612); test: α4β1 integrin-mediated Jurkat E6.1 cell adhesion to FN; assay type: cell-based; settings: Jurkat E6.1 cell adhesion to FN (10 μg/mL); antag. = reduced cell adhesion; mean ± SD
T1 construct: Jurkat E6.1 cell line, which endogenously expresses α4β1 integrin; host or cells: Jurkat E6.1
Protocol: To investigate the ability of the new peptides to modulate integrin-mediated cell adhesion, we employed cell adhesion assays using a Jurkat E6.1 cell line, which endogenously expresses α4β1 integrin and the natural ligand FN. […] On the contrary, ligands able to increase cell adhesion are defined as agonists.
(§1) The assays were performed as previously described. Briefly, regarding adhesion assays on Jurkat E6.1 or HL-60 cells, black 96-well plates (Corning Costar) were coated overnight at 4 °C with FN or Fg (10 μg/mL) or VCAM-1 (2 μg/mL) in order to investigate α4β1 integrin-mediated cell adhesion. To avoid any kind of unspecific binding, plates were incubated with 100 μL/well of blocking solution (1% BSA in HBSS) for 30 min at 37 °C. Cells were counted, stained with the CellTracker green CMFDA (12.5 μM, 30 min at 37 °C, Life Technologies Italia, Milan, Italy) and after three washes, were preincubated with increasing concentrations of new compounds (10^−10–10^−4 M) or with the vehicle (methanol) for 30 min at 37 °C.
(§2) Then, cells were plated (500,000/well) on coated wells and incubated for 30 min at 37 °C. Afterwards nonadherent cells were removed via washing with a blocking solution, and the remaining adhered cells were lysed with 0.5% Triton X-100 in PBS (30 min at 4 °C). Green fluorescence was measured (Ex485 nm/Em535 nm) using an EnSpire Multimode Plate Reader (PerkinElmer, Waltham, MA, USA).
(§3) In both types of adhesion assay, the number of adherent cells was determined via comparison with a standard curve made in the same plate. Experiments were carried out in quadruplicate and repeated at least three times. Data analysis and EC50 or IC50 values were calculated using GraphPad Prism 9.5.1 (GraphPad Software, San Diego, CA, USA).

α4β1 integrin [5] = molecular target: T1, α4β1 integrin; test: α4β1 integrin-mediated Jurkat cell adhesion to VCAM-1; assay type: cell-based; settings: Jurkat cell adhesion to VCAM-1 (2 μg/mL); antag. = reduced cell adhesion; mean ± SD
Protocol: (§4) To this purpose, the ability of the best peptidomimetics to modulate cell adhesion mediated by integrins other than α4β1 was evaluated in HL60 cells, mainly expressing the leukocyte integrin αMβ2, and on K562 cells, mainly expressing α5β1, which shares a β1 subunit with the heterodimer α4β1. […] In contrast, 13 was a moderate promoter of cell adhesion mediated by αMβ2 integrin, behaving as an agonist. Regarding α5β1 integrin, none of the peptidomimetics employed were able to modulate K562 cell adhesion, thus being shown to be completely ineffective toward α5β1 integrin. The reference compound DS-70 was ineffective toward both αMβ2 and α5β1 integrins under the same experimental conditions (Table 3).
as §1, §2, §3

αMβ2 integrin = molecular target: T2, αMβ2 integrin (Homo sapiens, UniProt P05107+P11215); test: αMβ2 integrin-mediated HL60 cell adhesion to Fg; assay type: cell-based; settings: HL60 cell adhesion to Fg (10 μg/mL); antagonists; mean ± SD
T2 construct: HL60 cells, mainly expressing the leukocyte integrin αMβ2; host or cells: HL60 (PMA-treated)
Protocol: as §4, §1, §2, §3
Cell culture. Jurkat E6.1 (expressing both α4β1 and αLβ2 integrin), K562 (expressing α5β1 integrin) and HL60 (expressing α Mβ2 integrin) cell lines were purchased from ATCC (Rockville, MD, USA); these cells were routinely cultured in RPMI-1640 (Life Technologies) supplemented with 1% glutamine and 10% fetal bovine serum (FBS). Cells were grown at 37 °C under 5% CO 2 humidified atmosphere. […]

α5β1 integrin = molecular target: T3, α5β1 integrin (Homo sapiens, UniProt P05556+P08648); test: α5β1 integrin-mediated K562 cell adhesion to FN; assay type: cell-based; settings: K562 cell adhesion to FN (10 μg/mL)
T3 construct: K562 cells, mainly expressing α5β1, which shares a β1 subunit with the heterodimer α4β1; host or cells: K562 (PMA-treated)
Protocol: as §4
For adhesion assays mediated by α5β1 integrin, K562 cells were pre-treated with PMA (64.85 nM, Merck Life Science, Milan, Italy) for 48 h to enhance α5β1 integrin expression. 96-well plates were coated via passive adsorption with FN (10 μg/mL) overnight at 4 °C; then, the following day, plates were blocked by adding 100 μL/well of a blocking solution (1% BSA in PBS) and incubated for 1 h at 37 °C. K562 cells were counted and preincubated with various concentrations (10^−10–10^−4 M) of the peptides or with the vehicle for 30 min at RT. Then, K562 cells were plated (50,000 cells/well) and incubated at RT for 1 h. The wells were then washed three times with 1% BSA in PBS, and 50 μL of hexosaminidase substrate was added and incubated at RT for 1 h. After the addition of 100 μL of stopping solution (50 mM glycine and 5 mM EDTA, pH 10.4), plates were read at 405 nm in an EnSpire Multimode Plate Reader.
as §3
Cell culture. Jurkat E6.1 (expressing both α4β1 and αLβ2 integrin), K562 (expressing α5β1 integrin) and HL60 (expressing α Mβ2 integrin) cell lines were purchased from ATCC (Rockville, MD, USA); these cells were routinely cultured in RPMI-1640 (Life Technologies) supplemented with 1% glutamine and 10% fetal bovine serum (FBS). Cells were grown at 37 °C under 5% CO 2 humidified atmosphere. 40 h before the adhesion assays, K562 and HL60 cells were treated with 25 nM or 40 nM phorbol 12 -myristate 13-acetate (PMA; Sigma-Aldrich), respectively, to induced cell differentiation and to increased α5β1 or αMβ2 integrin expression on cell surface (Baiula et al., 2016).
Cell adhesion assays . Concentration-response curves, obtained from cell adhesion assays performed in […]
Figure S1. […]

α4β1 integrin [6] = molecular target: T1, α4β1 integrin; test: LDV-FITC competitive binding on intact Jurkat E6.1 cells
Protocol: The assays were performed as previously described with the following modifications. Jurkat E6.1 cells were resuspended (50,000 cells/sample) in 0.1% BSA in a HEPES buffer (NaCl 110 mM; KCl 10 mM; Glucose 10 mM; MgCl2 1 mM; CaCl2 1.5 mM; HEPES 30 mM; pH 7.4) and pre-incubated with different concentrations (10^−11–10^−5 M) of compounds for 20–30 min at RT. Then, LDV-FITC (5 µM) was added to the cells, and they were incubated in the dark for an additional 30 min at RT. At the end of the incubation with LDV-FITC, cells were washed with 0.1% BSA in a HEPES buffer. The FITC fluorescence intensity was measured using an EnSpire Multimode Plate Reader (PerkinElmer, Waltham, MA, USA). The data were plotted as LDV-FITC specific bindings versus the concentration of the competitor, and the data were fitted to a one-site competition equation; the equilibrium dissociation constant Ki was calculated from the IC50 using the Cheng–Prusoff equation.

[7] = set-up: method as in PMID 30051467, PMID 33584300; settings: cited from earlier work
α4β1 integrin [8] = molecular target: T1, α4β1 integrin; test: HUTS-21 monoclonal antibody binding (α4β1 integrin conformation), flow cytometry; assay type: cell-based; settings: Jurkat E6.1 cells; compounds 1–100 nM; FN 10 µg/mL; versus vehicle
Description: Integrin functions are regulated by a number of conformational changes in the protein itself. […] Conformational changes can be evaluated by using conformationally sensitive antibodies which specifically recognize epitopes exposed only in a defined structural conformation. To better depict peptidomimetics–α4β1 integrin interactions, we employed PE-conjugated HUTS-21 mAb that recognizes an epitope mapped to the hybrid domain of the β1 subunit.
Conversely, antagonists 3, 8, and 13, although binding to α4β1 integrin as previously shown, were not able to induce any conformational rearrangement, showing very low binding of HUTS-21 mAb.
Flow cytometry analysis was performed as previously described, with the following modifications. Jurkat E6.1 cells were resuspended in 1% BSA in HBSS (50,000 cells/sample); then, FN (10 μg/mL) and two concentrations of the best peptidomimetics (100–1 nM) were added to the cells for 30 min. Thereafter, phycoerythrin (PE)-conjugated, conformational-sensitive HUTS-21 mAb (PE mouse anti-human CD29 antibody, Becton Dickinson Italia, Milan, Italy) (20 μL/sample) was added for 45 min at room temperature; after two washes, Jurkat E6.1 cells were suspended in PBS, and 10,000 cells/sample were acquired in a Guava®EasyCyte Flow Cytometer. The data are presented as the mean fluorescence intensity (MFI). Data were normalized with the relative fluorescence for nonspecific binding evaluated by exposing the cells to an isotype control mAb set to 0.

T1 sequence (P13612 34-1032): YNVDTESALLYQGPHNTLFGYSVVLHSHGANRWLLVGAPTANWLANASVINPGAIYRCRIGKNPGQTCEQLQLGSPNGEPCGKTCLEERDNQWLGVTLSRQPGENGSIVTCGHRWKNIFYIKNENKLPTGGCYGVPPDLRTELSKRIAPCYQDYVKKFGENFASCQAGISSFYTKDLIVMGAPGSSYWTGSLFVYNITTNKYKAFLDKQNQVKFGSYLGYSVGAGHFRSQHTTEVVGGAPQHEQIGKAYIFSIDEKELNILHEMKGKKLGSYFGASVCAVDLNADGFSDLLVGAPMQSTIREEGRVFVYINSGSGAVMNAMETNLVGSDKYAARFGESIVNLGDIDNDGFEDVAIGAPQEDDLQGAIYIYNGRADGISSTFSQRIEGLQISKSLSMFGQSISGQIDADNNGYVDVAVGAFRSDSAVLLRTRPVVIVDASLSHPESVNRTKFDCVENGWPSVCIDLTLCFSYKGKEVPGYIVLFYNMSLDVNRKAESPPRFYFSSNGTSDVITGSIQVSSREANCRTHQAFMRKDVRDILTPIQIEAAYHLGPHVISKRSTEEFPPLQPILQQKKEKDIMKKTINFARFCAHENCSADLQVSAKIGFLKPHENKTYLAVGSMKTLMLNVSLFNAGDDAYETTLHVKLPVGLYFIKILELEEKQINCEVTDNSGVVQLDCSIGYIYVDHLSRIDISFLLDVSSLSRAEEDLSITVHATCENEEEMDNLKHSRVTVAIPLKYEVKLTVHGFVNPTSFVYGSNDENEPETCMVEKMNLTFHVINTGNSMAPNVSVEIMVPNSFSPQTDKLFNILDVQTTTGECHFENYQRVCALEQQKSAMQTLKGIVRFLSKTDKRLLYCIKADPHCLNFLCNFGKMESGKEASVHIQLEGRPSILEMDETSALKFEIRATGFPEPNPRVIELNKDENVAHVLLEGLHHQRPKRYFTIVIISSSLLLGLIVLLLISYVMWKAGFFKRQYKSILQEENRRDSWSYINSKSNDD
T1 sequence (P05556 21-798): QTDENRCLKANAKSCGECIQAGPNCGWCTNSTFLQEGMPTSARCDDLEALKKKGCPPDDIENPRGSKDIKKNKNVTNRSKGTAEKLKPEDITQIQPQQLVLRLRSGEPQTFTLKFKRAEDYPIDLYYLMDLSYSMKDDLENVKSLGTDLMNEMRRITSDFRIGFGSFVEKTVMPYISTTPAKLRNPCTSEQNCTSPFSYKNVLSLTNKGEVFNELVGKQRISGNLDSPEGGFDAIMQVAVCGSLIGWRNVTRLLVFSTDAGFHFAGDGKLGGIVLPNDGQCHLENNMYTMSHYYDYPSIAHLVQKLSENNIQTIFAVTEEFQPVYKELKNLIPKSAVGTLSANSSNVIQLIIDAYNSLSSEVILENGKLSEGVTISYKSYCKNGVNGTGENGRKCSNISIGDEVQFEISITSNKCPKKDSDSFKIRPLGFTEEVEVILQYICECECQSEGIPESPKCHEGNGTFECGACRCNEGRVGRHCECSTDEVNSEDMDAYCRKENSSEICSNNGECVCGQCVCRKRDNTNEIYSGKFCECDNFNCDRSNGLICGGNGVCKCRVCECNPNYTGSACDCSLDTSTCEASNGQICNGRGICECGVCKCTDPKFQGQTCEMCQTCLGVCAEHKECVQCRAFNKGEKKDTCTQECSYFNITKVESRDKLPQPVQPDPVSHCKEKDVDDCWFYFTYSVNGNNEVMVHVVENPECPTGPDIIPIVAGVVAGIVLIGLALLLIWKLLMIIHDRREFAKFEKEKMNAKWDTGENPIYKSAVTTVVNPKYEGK
T3 sequence (P08648 42-894 limits assumed): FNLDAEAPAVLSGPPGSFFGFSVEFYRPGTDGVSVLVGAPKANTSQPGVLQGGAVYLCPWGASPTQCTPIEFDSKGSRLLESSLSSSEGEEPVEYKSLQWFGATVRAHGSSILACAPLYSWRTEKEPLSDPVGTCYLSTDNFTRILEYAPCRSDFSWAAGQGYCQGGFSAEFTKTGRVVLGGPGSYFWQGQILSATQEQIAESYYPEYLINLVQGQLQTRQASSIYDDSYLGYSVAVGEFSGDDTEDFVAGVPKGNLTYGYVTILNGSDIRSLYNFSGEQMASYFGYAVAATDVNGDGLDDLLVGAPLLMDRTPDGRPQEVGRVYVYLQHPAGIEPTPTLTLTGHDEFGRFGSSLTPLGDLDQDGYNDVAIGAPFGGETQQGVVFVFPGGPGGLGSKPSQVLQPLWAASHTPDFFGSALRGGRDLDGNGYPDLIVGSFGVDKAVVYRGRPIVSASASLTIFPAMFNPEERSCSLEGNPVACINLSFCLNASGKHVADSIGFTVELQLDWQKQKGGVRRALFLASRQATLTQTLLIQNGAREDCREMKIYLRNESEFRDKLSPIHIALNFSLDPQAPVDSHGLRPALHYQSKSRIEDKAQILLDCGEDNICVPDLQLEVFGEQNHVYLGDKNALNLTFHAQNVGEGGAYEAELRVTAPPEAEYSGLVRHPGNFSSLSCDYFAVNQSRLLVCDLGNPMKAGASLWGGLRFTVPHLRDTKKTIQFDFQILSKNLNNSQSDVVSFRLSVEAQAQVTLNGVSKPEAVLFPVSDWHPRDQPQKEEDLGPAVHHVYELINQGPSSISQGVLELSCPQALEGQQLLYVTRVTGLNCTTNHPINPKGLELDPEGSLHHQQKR
T3 sequence (P08648 895-1049 partner limits assumed): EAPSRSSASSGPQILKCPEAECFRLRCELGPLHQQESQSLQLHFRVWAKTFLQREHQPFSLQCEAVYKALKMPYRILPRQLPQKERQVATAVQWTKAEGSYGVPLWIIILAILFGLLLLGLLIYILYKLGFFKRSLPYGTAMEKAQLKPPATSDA
T3 sequence (P05556 21-798): as the sequence (P05556 21-798) above
T2 sequence (P05107 23-769, other chains not shown): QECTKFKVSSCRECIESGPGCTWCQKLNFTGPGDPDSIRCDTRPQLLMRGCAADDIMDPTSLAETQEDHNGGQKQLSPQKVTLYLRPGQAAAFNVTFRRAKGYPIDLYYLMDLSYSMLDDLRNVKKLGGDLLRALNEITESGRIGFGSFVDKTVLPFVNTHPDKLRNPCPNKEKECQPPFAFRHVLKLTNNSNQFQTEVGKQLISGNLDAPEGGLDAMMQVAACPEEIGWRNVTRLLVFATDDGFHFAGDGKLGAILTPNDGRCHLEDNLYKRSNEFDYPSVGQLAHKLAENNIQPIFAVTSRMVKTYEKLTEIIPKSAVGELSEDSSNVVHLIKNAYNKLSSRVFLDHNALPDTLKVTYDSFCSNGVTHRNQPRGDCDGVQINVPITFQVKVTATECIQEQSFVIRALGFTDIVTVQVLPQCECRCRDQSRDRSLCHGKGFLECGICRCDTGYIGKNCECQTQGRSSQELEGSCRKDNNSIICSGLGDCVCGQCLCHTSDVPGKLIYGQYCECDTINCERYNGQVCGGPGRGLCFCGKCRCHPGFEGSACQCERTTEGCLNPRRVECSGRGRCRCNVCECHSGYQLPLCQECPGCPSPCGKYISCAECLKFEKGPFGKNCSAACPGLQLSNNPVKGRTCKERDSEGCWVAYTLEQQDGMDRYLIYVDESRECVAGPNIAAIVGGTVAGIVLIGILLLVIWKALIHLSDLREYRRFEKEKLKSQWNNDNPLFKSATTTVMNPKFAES

In the case of `Cc1ccccc1NC(=O)Nc1ccc(CC(=O)N[C@@H](CC(C)C)C(=O)N[C@@H](CC(=O)O)C(=O)N[C@H](C(=O)N2CCC[C@H]2C(=O)O)C(C)C)cc1` [BIO1211, MPUPA-Leu-Asp-Val-ProOH] ({NH(2-Me-phenyl)-CO}-[X1]LDVP-OH), the “stability in a biological environment” value [1] is listed as “scarcely stable”, the clearance in vivo [2] is listed as “rapid clearance” and the antigen-induced airway hyper-responsiveness [3] is listed as “capable of inhibiting”.
Work on `Cc1ccccc1NC(=O)Nc1ccc(CNC(=O)[C@H]2CCN(C(=O)CC(=O)O)C2)cc1` [DS-23, reference compound] yielded an IC50 (α4β1 integrin [4]) of 0.051 µM.
Work on `Cc1ccccc1NC(=O)Nc1ccc(CC(=O)N2CC[C@H](C(=O)NCC(=O)O)C2)cc1` [DS-70, MPUPA-β^2Pro-Gly, reference compound] yielded an IC50 (α4β1 integrin [4]) of 0.0043 µM, an IC50 (α4β1 integrin [5]) of 0.00504 µM and an IC50 (αMβ2 integrin) of over 5 µM. The IC50 (α5β1 integrin) was over 5 µM, the Ki (α4β1 integrin [6]; intact Jurkat E6.1 cells vs. LDV-FITC, mean ± SD) was 0.00094 ± 0.00032 µM and the “stability in mouse serum” value [7] was “noteworthy stability”.
For `Cc1ccccc1NC(=O)Nc1ccc(CC(=O)NC[C@H](C)C(=O)NCC(=O)O)cc1` [compound 1], the “receptor affinity (in words)” value (α4β1 integrin [6]; α4β1 integrin) was “complete lack of receptor affinity”.
Molecule `Cc1ccccc1NC(=O)Nc1ccc(CNC(=O)[C@H](C)CNC(=O)CC(=O)O)cc1` [compound 9] has an IC50 (α4β1 integrin [4]) of over 5 µM.
With `Cc1ccccc1NC(=O)Nc1ccc(CNC(=O)[C@@H](C)CNC(=O)CC(=O)O)cc1` [compound 10] the IC50 (α4β1 integrin [4]) was over 5 µM.
Work on `CC(=O)N[C@@H](CNC(=O)CC(=O)O)C(=O)NCc1ccc(NC(=O)Nc2ccccc2C)cc1` [compound 11] yielded an IC50 (α4β1 integrin [4]) of over 5 µM.
`CC(=O)N[C@H](CNC(=O)CC(=O)O)C(=O)NCc1ccc(NC(=O)Nc2ccccc2C)cc1` [compound 12] showed an IC50 (α4β1 integrin [4]) of over 5 µM.
`Cc1ccccc1NC(=O)Nc1ccc(CNC(=O)C[C@H](C)NC(=O)CC(=O)O)cc1` [compound 14] showed an IC50 (α4β1 integrin [4]) of over 5 µM.
`CCCNC(=O)[C@H](CC(=O)NCc1ccc(NC(=O)Nc2ccccc2C)cc1)NC(=O)CC(=O)O` [compound 15] gave an IC50 (α4β1 integrin [4]) of over 5 µM.
Molecule `CCCNC(=O)[C@@H](CC(=O)NCc1ccc(NC(=O)Nc2ccccc2C)cc1)NC(=O)CC(=O)O` [compound 16] has an IC50 (α4β1 integrin [4]) of over 5 µM.
For fibronectin [FN], the “binding of HUTS-21 mAb (MFI)” value (α4β1 integrin [8]) was “increased binding of the HUTS-21 mAb”.

From publication PMC10253817, “Design, Pharmacological Characterization, and Molecular Docking of Minimalist Peptidomimetic Antagonists of α4β1 Integrin” (International Journal of Molecular Sciences, 2023)
